pIC50: −log10 of the molar value. Read-outs that look alike come from different tables or passages of the source.

Results on eight compounds are retold here after US20190263796A1, “LIM KINASE INHIBITORS, PHARMACEUTICAL COMPOSITION AND METHOD OF USE IN LIMK-MEDIATED DISEASES” (CELLIPSE, priority 2016, published 2019).

Experiment [1] has as its system Phospho-Ser3-Cofilin/Total Cofilin. The experiment is described as follows: Western blot cofilin phosphorylation, HL-60. The note with it: Homo sapiens; HL-60 cells; 2 h. In kind it is cell-based. As to the method:
(§1) HL-60 cell line was originally purchased from the Leibniz-Institut Deutsche Sammlung von Mikroorganismen und Zellkulturen GmbH (DSMZ). HL-60 cells are cultured in RPMI 1640 10% (v/v) FBS supplemented with 100 U/mL^−1 penicillin, 0.1 mg·mL^−1 streptomycin (PAN Biotech P06-07100). Cells were maintained at 37° C. with 5% CO2.
(§2) In a 6 wells plate (Falcon 353046), 2·10^6 cells in 1.5 mL medium are treated for 2 h with compounds. Cells are then collected and cell lysis is performed at 4° C. using RIPA buffer supplemented with protease inhibitors cocktail (Sigma-Aldrich P8340) and phosphatase inhibitors cocktail (Sigma-Aldrich P5726). Following centrifugation 30 min 15000 g 4° C., supernatants are mixed with Laemmli buffer and denaturation is performed by heating 5 min 95° C. 10 μL of samples are subjected to electrophoresis on 15% SDS-PAGE. After electro-transfer (Mini Transblot, Bio-Rad), the PVDF membrane (Merck-Millipore Immobilon P IPVH00010) is blocked with Tris Buffered Saline, pH 7.4 (TBS) with 0.1% Tween 20 and 5% BSA for 1 h RT under agitation. The membrane was rinsed 3 times 10 min at room temperature under agitation with TBS, 0.1% Tween-20 (TBST) and then 1 h at room temperature with anti-phospho-Ser3-cofilin (Cell Signaling Technology #3313, 1/1000 dilution) antibody or anti-cofilin (Cell Signaling Technology #3312, 1/1000 dilution) diluted in TBS, 0.1% Tween 20 and 1% BSA. The membrane is then rinsed 3 times 10 min at room temperature under agitation in TBST and incubated for 1 h with anti-rabbit secondary antibody, horseradish peroxidase conjugated (Jackson Immunoresearch #711-036-152) under agitation at room temperature. After three washes 10 min at room temperature in TBST, the detection of total or phosphorylated cofilin was performed using chemiluminescence kit ECL™ Plus (GE Healthcare RPN2132). For each concentration of compound, ratio between phosphorylated cofilin and total cofilin is determined. This ratio is then expressed as percentage of control ratio (i.e., ratio from DMSO treated cells). IC50 Phospho-Ser3-Cofilin/Total Cofilin is then determined.
Background: Immunoblotting shows a protein as a band on a membrane.

Experiment [2] has the same test system. The experiment is described as follows: Western blot cofilin phosphorylation, Kasumi-1. In kind it is cell-based. The conditions noted are these: Homo sapiens; Kasumi-1 cells; 2 h. As for the experimental part:
Kasumi-1 cell line was originally purchased from the American Type Culture Collection (ATCC). Kasumi-1 cells are cultured in RPMI 1640 20% (v/v) FBS supplemented with 100 U/mL^−1 penicillin, 0.1 mg·mL^−1 streptomycin (PAN Biotech P06-07100). Cells were maintained at 37° C. with 5% CO2.
In a 6 wells plate (Falcon 353046), 2·10^6 cells in 1.5 mL medium are treated for 2 h with compounds. Cells are then collected and cell lysis is performed at 4° C. using RIPA buffer supplemented with protease inhibitors cocktail (Sigma-Aldrich P8340) and phosphatase inhibitors cocktail (Sigma-Aldrich P5726). Following centrifugation 30 min 15000 g 4° C., supernatants are mixed with Laemmli buffer and denaturation is performed by heating 5 min 95° C. 10 μL of samples are subjected to electrophoresis on 15% SDS-PAGE. After electro-transfer (Mini Transblot, Bio-Rad), the PVDF membrane (Merck-Millipore Immobilon P IPVH00010) is blocked with Tris Buffered Saline, pH 7.4 (TBS) with 0.1% Tween 20 and 5% BSA for 1 h RT under agitation. […] For each concentration of compound, ratio between phosphorylated cofilin and total cofilin is determined. This ratio is then expressed as percentage of control ratio (i.e., ratio from DMSO treated cells). IC50 Phospho-Ser3-Cofilin/Total Cofilin is then determined.

For experiment [3], the system named is P-MEK/Total MEK. The experiment is described as follows: Western blot MEK1 phosphorylation, HL-60. In kind it is cell-based. The note with it: Homo sapiens, HL-60, 2 h, read-out: IC50 P-MEK/Total MEK. As to the method: as §1
(§3) In a 6 wells plate (Falcon 353046), 2·10^6 cells in 1.5 mL medium are treated for 2 h with compounds. Cells are then collected and cell lysis is performed at 4° C. using RIPA buffer supplemented with protease inhibitors cocktail (Sigma-Aldrich P8340) and phosphatase inhibitors cocktail (Sigma-Aldrich P5726). Following centrifugation 30 min 15000 g 4° C., supernatants are mixed with Laemmli buffer and denaturation is performed by heating 5 min 95° C. 10 μL of samples are subjected to electrophoresis on 15% SDS-PAGE. After electro-transfer (Mini Transblot, Bio-Rad), the PVDF membrane (Merck-Millipore Immobilon P IPVH00010) is blocked with Tris Buffered Saline, pH 7.4 (TBS) with 0.1% Tween 20 and 5% BSA for 1 h at room temperature under agitation. The membrane was rinsed 3 times 10 min at room temperature under agitation with TBS, 0.1% Tween-20 (TBST) and then 1 h at room temperature with anti-phospho-Ser218/222-MEK1 (Merck-Millipore 07-461, 1/1000 dilution) antibody or anti-MEK1 (Merck-Millipore 07-641, 1/1000 dilution) diluted in TBS, 0.1% Tween 20 and 1% BSA. The membrane is then rinsed 3 times 10 min RT under agitation in TBST and incubated for 1 h with anti-rabbit secondary antibody, horseradish peroxidase conjugated (Jackson Immunoresearch #711-036-152) under agitation at room temperature. After three washes 10 min at room temperature in TBST, the detection of total or phosphorylated cofilin was performed using chemiluminescence kit ECL™ Plus (GE Healthcare RPN2132). For each concentration of compound, ratio between phosphorylated cofilin and total cofilin is determined. This ratio is then expressed as percentage of control ratio (i.e., ratio from DMSO treated cells). IC50 P-MEK/Total MEK is then determined.
(§4) Selectivity ratios are calculated by dividing the IC50 P-MEK/Total MEK value (μM) by the IC50 Phospho-Ser3-Cofilin/Total Cofilin value (μM).

Experiment [4] relates to P-MEK/Total MEK. Description: Western blot MEK1 phosphorylation, MOLM-14. In kind it is cell-based. The conditions noted are these: read-out: IC50 P-MEK/Total MEK; MOLM-14 cells; 2 h. As for the experimental part: (§5) MOLM-14 cell line was originally purchased from the American Type Culture Collection (ATCC). MOLM-14 cells are cultured in MEM alpha 10% (v/v) FBS supplemented with 100 U/mL^−1 penicillin, 0.1 mg·mL^−1 streptomycin (PAN Biotech P06-07100). Cells were maintained at 37° C. with 5% CO2.
as §3, §4

In experiment [5] the test system is P-MEK/Total MEK. The experiment is described as follows: Western blot MEK1 phosphorylation, MOLM-13. In kind it is cell-based. The note with it: read-out: IC50 P-MEK/Total MEK; MOLM-13 cells; 2 h. As to the method:
(§6) MOLM-13 cell line was originally purchased from the Leibniz-Institut Deutsche Sammlung von Mikroorganismen und Zellkulturen GmbH (DSMZ). MOLM-13 cells are cultured in RPMI 1640 20% (v/v) FBS supplemented with 100 U/mL^−1 penicillin, 0.1 mg·mL^−1 streptomycin (PAN Biotech P06-07100). Cells were maintained at 37° C. with 5% CO2.
as §3, §4

In experiment [6] the test system is Phospho-Ser3-Cofilin/Total Cofilin. The experiment is described as follows: Western blot cofilin phosphorylation, MOLM-13. The conditions noted are these: MOLM-13 cells; 2 h. In kind it is cell-based. As to the method: as §6, §2
For experiment [7] the test system is unchanged. The experiment is described as follows: Western blot cofilin phosphorylation, MOLM-14. The note with it: MOLM-14 cells; 2 h. In kind it is cell-based. As for the experimental part: as §5, §2
Experiment [8] has as its system P-MEK/Total MEK. Description: Western blot MEK1 phosphorylation, Kasumi-1. In kind it is cell-based. The note with it: Homo sapiens, Kasumi 1, 2 h, read-out: IC50 P-MEK/Total MEK. As to the method:
Cells were maintained at 37° C. with 5% CO2.
as §3, §4

The target of experiment [9] is B-Raf(h) (Homo sapiens, UniProt P15056). The experiment is described as follows: B-Raf kinase assay (Eurofins Panlabs, radiometric). In kind it is biochemical. Further details: purchased Eurofins Panlabs Inc. (contract assay service). The note with it: Table 8; for pIC50: 120 μM ATP, read-out: IC50 B-Raf; for Selectivity ratio: IC50 B-Raf (nM) divided by IC50 LIMK1 (nM). As for the experimental part:
IC50 B-Raf is then determined.
Selectivity ratios are calculated by dividing the IC50 B-Raf (nM) by the IC50 LIMK1 (nM).

The target of experiment [10] is LIMK1(h) (Homo sapiens, UniProt P53667). Description: LIMK1 kinase assay (Eurofins Panlabs, radiometric). In kind it is biochemical. The arrangement: purchased Eurofins Panlabs Inc. (contract assay service). The note with it: 15 μM ATP, read-out: IC50 LIMK1.
Procedure: Compounds were tested in a LIMK1 assay performed by Eurofins Panlabs Inc. LIMK1 (h) is incubated with 8 mM MOPS pH 7.0, 0.2 mM EDTA, 0.6 mg/mL cofilin, 10 mM Magnesium acetate and [gamma-33P]-ATP. The reaction is initiated by the addition of the Mg/ATP mix. After incubation for 40 min at room temperature, the reaction is stopped by the addition of phosphoric acid to a concentration of 0.5%. […] IC50 LIMK1 is then determined.
For experiment [11], the system named is Phospho-Ser3-Cofilin/Total Cofilin. The experiment is described as follows: Western blot of cellular cofilin phosphorylation status, MV4-11 (II.4). In kind it is cell-based. The note with it: Homo sapiens; MV4-11 cells; 2 h treatment. As to the method:
MV4-11 cell line was originally purchased from the American Type Culture Collection (ATCC). MV4-11 cells are cultured in RPMI 1640 10% (v/v) FBS supplemented with 100 U/mL^−1 penicillin, 0.1 mg·mL^−1 streptomycin (PAN Biotech P06-07100) and 2 mM Glutamine (Sigma-Aldrich 59202C). Cells were maintained at 37° C. with 5% CO2.
as §2, with “10 min RT under agitation” for “10 min at room temperature under agitation”, “1 h RT with anti-phospho-Ser3-cofilin” for “1 h at room temperature with anti-phospho-Ser3-cofilin”, “for 1 hour with anti-rabbit” for “for 1 h with anti-rabbit”, “10 min RT in TBST,” for “10 min at room temperature in TBST,”, “control ratio (i.e ratio from” for “control ratio (i.e., ratio from”, “cells). IC50 is then” for “cells). IC50 Phospho-Ser3-Cofilin/Total Cofilin is then”

Chain of B-Raf(h) (P15056 whole entry): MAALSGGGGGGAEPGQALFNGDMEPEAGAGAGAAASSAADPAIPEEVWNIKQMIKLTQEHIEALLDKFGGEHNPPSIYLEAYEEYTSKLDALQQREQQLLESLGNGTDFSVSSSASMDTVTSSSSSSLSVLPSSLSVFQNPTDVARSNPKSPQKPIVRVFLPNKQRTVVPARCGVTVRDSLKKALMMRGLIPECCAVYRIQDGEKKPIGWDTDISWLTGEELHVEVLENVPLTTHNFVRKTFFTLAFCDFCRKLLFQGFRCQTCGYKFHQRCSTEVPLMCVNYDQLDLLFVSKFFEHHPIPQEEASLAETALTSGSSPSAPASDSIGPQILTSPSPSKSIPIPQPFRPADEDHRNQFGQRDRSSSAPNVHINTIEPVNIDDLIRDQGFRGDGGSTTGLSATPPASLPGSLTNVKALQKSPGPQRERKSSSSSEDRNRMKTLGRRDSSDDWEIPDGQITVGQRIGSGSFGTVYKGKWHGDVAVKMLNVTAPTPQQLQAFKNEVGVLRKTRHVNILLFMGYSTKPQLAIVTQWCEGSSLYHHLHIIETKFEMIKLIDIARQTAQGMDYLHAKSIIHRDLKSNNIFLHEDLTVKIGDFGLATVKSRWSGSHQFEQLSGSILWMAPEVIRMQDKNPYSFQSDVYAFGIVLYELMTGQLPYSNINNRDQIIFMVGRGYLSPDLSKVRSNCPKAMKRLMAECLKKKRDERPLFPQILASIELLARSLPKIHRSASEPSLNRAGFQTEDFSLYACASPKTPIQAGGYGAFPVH
Chain of LIMK1(h) (P53667 whole entry): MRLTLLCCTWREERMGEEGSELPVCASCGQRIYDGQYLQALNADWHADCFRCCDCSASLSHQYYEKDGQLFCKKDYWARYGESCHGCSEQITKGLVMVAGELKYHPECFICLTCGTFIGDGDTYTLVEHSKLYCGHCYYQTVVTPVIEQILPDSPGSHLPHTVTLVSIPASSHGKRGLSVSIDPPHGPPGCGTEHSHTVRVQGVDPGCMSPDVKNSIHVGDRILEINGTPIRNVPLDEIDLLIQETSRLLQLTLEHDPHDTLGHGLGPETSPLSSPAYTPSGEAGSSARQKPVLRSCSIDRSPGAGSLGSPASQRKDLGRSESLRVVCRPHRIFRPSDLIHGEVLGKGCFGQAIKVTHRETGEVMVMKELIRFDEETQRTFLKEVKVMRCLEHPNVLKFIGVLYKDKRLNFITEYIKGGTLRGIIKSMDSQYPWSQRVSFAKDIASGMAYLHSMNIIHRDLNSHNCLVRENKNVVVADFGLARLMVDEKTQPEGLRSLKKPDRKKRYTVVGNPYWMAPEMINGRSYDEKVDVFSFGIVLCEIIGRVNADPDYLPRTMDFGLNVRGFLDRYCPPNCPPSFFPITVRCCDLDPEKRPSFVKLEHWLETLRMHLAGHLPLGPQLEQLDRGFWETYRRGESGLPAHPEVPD

In the case of `CNC(=O)Cc1nc(-c2cccc(NS(=O)(=O)c3c(F)cccc3F)c2F)c(-c2ccnc(Nc3ccccc3)n2)s1` [9 (Na)], the pIC50 in experiment [1] was 6.00 to 6.70; in [2], 6.00 to 6.70; in experiment [3], less than 6.00; in experiment [4], 6.00 to 6.70; in [5], less than 6.00; in experiment [6], 6.00 to 6.70. Besides, the pIC50 in experiment [7] was greater than 6.70; in experiment [8], less than 6.00.
Consider `CCOC(=O)Cc1nc(-c2cccc(NS(=O)(=O)c3c(F)cccc3F)c2F)c(-c2ccnc(Nc3ccccc3)n2)s1` [Compound 2, ethyl 2-(4-(3-(2,6-difluorophenylsulfonamido)-2-fluorophenyl)-5-(2-(phenylamino)pyrimidin-4-yl)thiazol-2-yl)acetate], for which the figures for the pIC50 in [9], in experiment [10] (Table 2) and in [11] were 7.00 to 8.00, greater than 8.00 and less than 6.00, respectively. Further, the Selectivity ratio in [9] was found to be 4.
Take `CCCS(=O)(=O)Nc1cccc(-c2nc(C(C)(C)C)sc2-c2ccnc(Nc3ccccc3)n2)c1F` [Compound 3, N-(3-(2-(tert-butyl)-5-(2-(phenylamino)pyrimidin-4-yl)thiazol-4-yl)-2-fluorophenyl)propane-1-sulfonamide]: the results for the pIC50 in experiment [10] (Table 2) and in experiment [11] were 6.30 to 7.00 and greater than 6.70, respectively.
Regarding `CC(C)(C)c1nc(-c2cccc(NS(=O)(=O)CCC(F)(F)F)c2F)c(-c2ccnc(Nc3ccccc3)n2)s1` [Compound 4, N-(3-(2-(tert-butyl)-5-(2-(phenylamino)pyrimidin-4-yl)thiazol-4-yl)-2-fluorophenyl)-3,3,3-trifluoropropane-1-sulfonamide], the figures for the pIC50 in experiment [10] (Table 2) and in experiment [11] were 6.30 to 7.00 and 6.00 to 6.70, respectively.
`CC(C)(C)c1nc(-c2cccc(NC(=O)C(=O)c3c(F)cccc3F)c2F)c(-c2ccnc(Nc3ccccc3)n2)s1` [Compound 5, N-(3-(2-(tert-butyl)-5-(2-(phenylamino)pyrimidin-4-yl)thiazol-4-yl)-2-fluorophenyl)-2-(2,6-difluorophenyl)-2-oxoacetamide]: the pIC50 in experiment [9] was 5.30 to 6.30; in experiment [10] (Table 2), 6.30 to 7.00; in experiment [10] (Table 8), 5.30 to 6.30. The Selectivity ratio in experiment [9] is on record as 11.
For the compound `CC(C)(C)OC(=O)Nc1cccc(-c2nc(C(C)(C)C)sc2-c2ccnc(Nc3ccccc3)n2)c1F` [Compound 6, tert-butyl (3-(2-(tert-butyl)-5-(2-(phenylamino)pyrimidin-4-yl)thiazol-4-yl)-2-fluorophenyl)carbamate], the pIC50 in experiment [9] is 5.30 to 6.30; in [10] (Table 2) it was 5.30 to 6.30; in [11], less than 6.00. The Selectivity ratio in [9] stood at 16.
`CC(C)(C)c1nc(-c2cccc(NS(=O)(=O)c3c(F)cccc3F)c2F)c(-c2ncnc3[nH]ccc23)s1` [Compound 7, N-(3-(2-(tert-butyl)-5-(7H-pyrrolo[2,3-d]pyrimidin-4-yl)thiazol-4-yl)-2-fluorophenyl)-2,6-difluorobenzenesulfonamide]: the pIC50 in [10] (Table 2) was 5.30 to 6.30; in experiment [11] it was 6.00 to 6.70.
On to `CC(C)(C)c1nc(-c2cccc(NS(=O)(=O)C3CC3)c2F)c(-c2ccnc(Nc3ccccc3)n2)s1` [Compound 10, N-(3-(2-(tert-butyl)-5-(2-(phenylamino)pyrimidin-4-yl)thiazol-4-yl)-2-fluorophenyl)cyclopropanesulfonamide], for which the pIC50 in [10] (Table 2) is 6.30 to 7.00.
